According to US20220015402A1, “Mint Flavor Compositions” (The Procter & Gamble Company, priority 2020, published 2022):

What was measured:
[1] = Comparison of cooling attributes of (−)-menthol and racemic menthol in a toothpaste (CREST Cavity formulation); type: in vivo
Description: The following data helps support the use of racemic menthol to reduce costs of mint flavor compositions herein described. From internal unpublished research, Table B compares replacing (−)-menthol with a racemic menthol in a 1:1 in a toothpaste formulation. Such a direct replacement is not preferred given the reduced cooling profile and olfactory differences; however, a portion of L-menthol is preferably replaced by racemic-menthol to gain cost efficiency while minimizing impact to the overall mint flavor profiles.
Table B is a comparison of attributes between (—)-menthol and racemic menthol in a toothpaste context (using CREST Cavity formulation).

[2] = Expert sensory testing of racemic menthol vs (−)-menthol in toothpaste (CREST Cavity) with standard spearmint flavor; type: in vivo
Procedure: In separate, unpublished internal experiments, perceptual experiences of racemic menthol are quantified via expert sensory testing. The use of a standard spearmint flavor (minimizing extra menthol contribution) compared racemic menthol to (−)-menthol in a toothpaste formulation (CREST Cavity). There are several sensory observations taken from these experiments. […] These aromatic notes appear during brushing and disappear after 5-10 minutes post expectoration and are more pronounced as concentrations increase.

## CC1CCC(C(C)C)C(O)C1 (racemic) [Racemic Menthol, racemic menthol]
[1]
  Potency compared to L-Menthol: ~0.65-0.7x
  Time Point at Maximum Cooling: ~1 min
[1]; 60 = greatest amount of cooling, 0 = least
  Maximum Cooling (0-60 scale): 35
[1]; cooling
  Maximum Longevity: Up to 20 minutes
[2]
  less potent than (−)-menthol for cooling: 25-30%
